Measurements published in patent US7994204B2, “Binding inhibitor of sphingosine-1-phosphate” (Taisho Pharmaceutical Co., Ltd, priority 2006, dated 2011).

Key:
[1] = target: T1, human Edg-1 (S1P1) (Homo sapiens, UniProt P21453); assay: S1P1 binding inhibition test (membrane, [33P]-S1P); conditions: for inhibition at 10 µM: compound 10 μM, [33P]-S1P 0.1 nM, human Edg-1 (S1P1) HEK-293 membrane fraction, read-out: Binding test (membrane) % inhibition (10 μM); for IC50: membrane system binding test, various concentrations
T1 construct: expressed in transfected cells; host or cells: HEK-293
Procedure: The membrane fraction was obtained by treating the cells with a solubilizing buffer (1 mM Tris/HCl, pH 7.2) for 10 minutes on ice, centrifuging at 1000×g for 5 minutes to remove insoluble fractions, and then centrifuging at 40000×g for 30 minutes at 4° C. The resulting membrane fraction was dissolved in a binding buffer (20 mM Tris-HCl, pH 7.4, 100 mM NaCl, 15 mM NaF, 2 mM deoxypyridoxine, 4 mg/mL fatty acid-free BSA), and then [^33P]-S1P (manufactured by ARC, final concentration 0.1 nM) and a DMSO solution (final concentration of the compound 10^−5 M, final concentration of DMSO 0.1%) of the test compound were added. Thereafter, the mixture was stirred and then treated for one hour at 30° C. Using a harvester, the membrane fraction was harvested onto unifilter-96 GF/C filter (manufactured by Perkin Elmer), washing was carried out four times with the binding buffer, and the filter was dried. Twenty five μL Microscint 0 (manufactured by Perkin Elmer) was added, and radioactivity was measured using Top Count NXT (manufactured by Packard) to calculate the amount (A) of [^33P]-S1P bound to the membrane fraction at the time when the compound was added.
The same procedure was carried out in the absence of the test compound, and the amount (B) of [^33P]-S1P bound was calculated. Further, the same procedure was carried out in the absence of the test compound by use of HEK-293 cells to which no Edg-1 (S1P1) gene was introduced, and the background amount (C) of [^33P]-S1P bound was calculated.
Inhibition rate (%)=[1−(A−C)/(B−C)]×100.
Moreover, the concentration required for a test compound to produce 50% inhibition of the binding caused in the absence of the test compound was also calculated (IC50). The above membrane system binding test was performed in the presence of a test compound at various concentrations to calculate the inhibition rate of Edg-1(S1P1) binding at each concentration according to the above equation, followed by calculating an IC50 value for each compound with data analysis software, Origin (Lightstone Corp., Japan).

T1 sequence (P21453 whole entry): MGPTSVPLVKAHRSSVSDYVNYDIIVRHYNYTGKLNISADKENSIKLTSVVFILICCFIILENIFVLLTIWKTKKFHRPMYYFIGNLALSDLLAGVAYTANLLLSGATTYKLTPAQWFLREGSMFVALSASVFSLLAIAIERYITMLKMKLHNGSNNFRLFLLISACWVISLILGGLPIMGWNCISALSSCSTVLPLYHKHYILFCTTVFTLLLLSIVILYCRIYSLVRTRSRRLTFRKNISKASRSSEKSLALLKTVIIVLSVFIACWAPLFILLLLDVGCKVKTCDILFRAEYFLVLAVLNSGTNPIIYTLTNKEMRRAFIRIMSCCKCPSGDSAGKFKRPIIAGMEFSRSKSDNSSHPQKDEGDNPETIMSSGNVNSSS

Structure (SMILES) | inhibition at 10 µM [1] [%] | melting point [°C] | IC50 [1] [nM]
CCn1c(C(C)NS(=O)(=O)c2ccc(Cl)c(Cl)c2)cnc1OCCCN1CCOCC1 (centres unmarked) [Compound 228] | 96 | 160.5 to 162.5 | 
CCn1c(C(Cc2ccc(C)cc2)NS(=O)(=O)c2ccc3c(Cl)cccc3c2)cnc1Oc1ccc(F)cc1 (centres unmarked) [Compound 197] | 95.3 | 166 to 167 | 
CCc1c(C(C)NS(=O)(=O)c2ccc3c(Cl)cccc3c2)nn(C)c1Oc1ccc(C)cc1 (centres unmarked) [Compound 181] |  | 154.5 to 155.5 | 
CC(NS(=O)(=O)c1ccc(Cl)c(Cl)c1)c1cnc(Oc2ccc(F)cc2)n1C (centres unmarked) [Compound 211] | 92.2 | 179.5 to 180.5 | 
CCn1c(C(C)NS(=O)(=O)c2ccc(Cl)c(Cl)c2)cnc1OC(C)C (centres unmarked) [Compound 222] | 87.6 | 178 to 180 | 
CCC(NS(=O)(=O)c1ccc2c(Cl)cccc2c1)c1cnc(Oc2ccc(F)cc2)n1CC (centres unmarked) [Compound 192] | 101 | 118 to 120 | 23
CCn1c(C(Cc2ccc(Cl)cc2)NS(=O)(=O)c2ccc(Cl)c(Cl)c2)cnc1Oc1ccc(F)cc1 (centres unmarked) [Compound 205] | 94.4 | 155.5 to 156.5 | 
CCn1c(C(C)NS(=O)(=O)c2ccc(Cl)c(Cl)c2)cnc1Oc1cccc(-n2ccnc2)c1 (centres unmarked) [Compound 209] | 98.9 | 170 to 171 | 42
CCn1c(C(C)NS(=O)(=O)c2ccc(Cl)c(Cl)c2)cnc1Oc1ccc(OC)cc1 (centres unmarked) [Compound 203] | 102 | 146.5 to 148 | 23.5
CCn1c(C(C)NS(=O)(=O)c2ccc3c(c2)CCC3)cnc1Oc1cccc(N2CCN(C)CC2)c1 (centres unmarked) [Compound 244] | 98.3 | 160 to 162 | 32.5
CCn1c(C(Cc2ccccc2)NS(=O)(=O)c2ccc(Cl)c(Cl)c2)cnc1Oc1ccc(F)cc1 (centres unmarked) [Compound 193] | 98.6 | 114.5 to 115.5 | 
CCn1c(C(Cc2ccc(F)cc2)NS(=O)(=O)c2ccc3c(Cl)cccc3c2)cnc1Oc1ccc(F)cc1 (centres unmarked) [Compound 200] | 97.1 | 175 to 176 | 17
CCn1c(CNS(=O)(=O)c2ccc(Cl)c(Cl)c2)cnc1Oc1ccc(F)cc1 [Compound 210] | 90.6 | 154 to 155 | 
CCn1c(C(NS(=O)(=O)c2ccc3c(Cl)cccc3c2)c2ccccc2)cnc1Oc1ccc(F)cc1 (centres unmarked) [Compound 202] | 69.3 | 171.5 to 172.5 | 
CCn1c(C(C)NS(=O)(=O)c2ccc3c(Cl)cccc3c2)cnc1Oc1ccc(F)cc1 (centres unmarked) [Compound 187] | 101 | 138 to 141 | ≤ 35
CCn1c(C(Cc2ccc(F)cc2)NS(=O)(=O)c2ccc(Cl)c(Cl)c2)cnc1Oc1ccc(F)cc1 (centres unmarked) [Compound 199] | 97.3 | 145.5 to 146.5 | 
CCn1c(C(C)NS(=O)(=O)c2ccc3cccc(Cl)c3c2)cnc1Oc1cccc(N2CCN(C)CC2)c1 (centres unmarked) [Compound 247] | 99.9 | 196 to 198 | ≤ 15
CCn1c(C(Cc2ccccc2)NS(=O)(=O)c2ccc3c(Cl)cccc3c2)cnc1Oc1ccc(F)cc1 (centres unmarked) [Compound 194] | 93 | 172.5 to 174 | ≤ 70
C#CCCCOc1ncc(C(C)NS(=O)(=O)c2ccc(Cl)c(Cl)c2)n1CC (centres unmarked) [Compound 226] | 91.5 | 172.5 to 173.5 | 
CC(NS(=O)(=O)c1ccc2c(Cl)cccc2c1)c1cnc(Oc2ccc(F)cc2)n1C (centres unmarked) [Compound 212] | 92 | 134 to 135 | 
CCn1c(C(C)NS(=O)(=O)c2ccc3ccc(Cl)cc3c2)cnc1Oc1cccc(N2CCN(C)CC2)c1 (centres unmarked) [Compound 243] | 97.4 | 135 to 136 | 
CCn1c(C(C)NS(=O)(=O)c2ccc3c(Cl)ccc(Cl)c3c2)cnc1Oc1cccc(N2CCN(C)CC2)c1 (centres unmarked) [Compound 246] | 101 | 220 to 223 | ≤ 15
CCCCCCCCCCCCCCCCCCOc1ncc(C(C)NS(=O)(=O)c2ccc(Cl)c(Cl)c2)n1CC (centres unmarked) [Compound 238] |  | 117 to 118 | 
CCn1c(C(C)NS(=O)(=O)c2ccc(Cl)c(Cl)c2)cnc1OCCCCCCN(C)C (centres unmarked) [Compound 235] | 94 | 137.5 to 142.5 | 58.5
